Legend:
[1] = system: HeLa cells xenografted in mice; experiment: HeLa tumor xenograft in nude mice; assay type: in vivo; settings: PTX 8 mg/kg
Method: Five-week-old NMRI nude mice (Janvier Labs) were implanted with 10 × 10^6 HeLa cells (200 μl in PBS) on the right flank. On day 6, the mean tumor volume was 120 ± 4 mm^3. […] Behavior and signs of pain were monitored daily. Body weight and tumor volume were measured two to three times per week using electronic calipers, with tumor volume (in cubic millimeters) calculated as length (millimeters)/2 × width^2 (square millimeters). Tumor growth inhibition was analyzed using GraphPad Prism with one-way analysis of variance (ANOVA) and Dunn’s multiple comparisons test for treatment versus vehicle. Mice were euthanized on day 20, when the vehicle group reached ethical limits. Blood samples were collected by intracardiac puncture in EDTA-coated tubes for differential blood counts and hemograms, outsourced to IDEXX BioAnalytics. For biochemical analysis, blood was collected in heparin-lithium tubes, and plasma was isolated by centrifugation and frozen at −80°C. Plasma was analyzed using MS Scan II (Melet Schloesing) and VET16 reagent rotors to measure markers of renal and hepatic function, metabolism, and nutritional and muscular status. Differential counts, hemograms, and biochemical data were analyzed with GraphPad Prism using Kruskal-Wallis test and Dunn’s multiple comparisons test.

[2] = system: HeLa cells; parameters: method as in PMID 32781579; settings: dividing cells, 72-hour treatment; read-out: GI50 (50% of growth inhibition); cited from earlier work
[3] = system: HeLa cells; experiment: NAD(P)H autofluorescence imaging in live HeLa cells; assay type: cell-based, human; settings: 12 μM, 24 hours
Method: HeLa cells were seeded in four-chamber Labtek plates at 10,000 cells per well. After 48 hours, cells were preincubated with or without 12 μM Carba1 for 2 hours before addition of FK866 (5 and 10 nM). Drugs were added to phenol red–free DMEM medium, supplemented with 10% FBS 1% penicillin/streptomycin. After 24 hours of drug incubation, cells were imaged using a confocal microscope (LSM 710, Zeiss) with a two-photon excitation at 700 nm (Chameleon Vision Laser, Coherent) and a 40×/1.2 water-immersion objective. Detection was performed in single-photon mode using an avalanche photodiode detector (ConfoCor 3). NAD(P)H signal intensity was quantified as the mean signal per cell using ImageJ and normalized to the cell area.

[4] = system: adult mouse DRG neurons; experiment: Axonal degeneration index in dissociated adult mouse DRG neurons; settings: 72 h
Method: After 4 days in vitro (DIV), at least 30% of medium was changed, and 10 μM AraC (cytosine β-D-arabino furanoside) was added to suppress nonneuronal growth. […] Neurons were fixed with 4% paraformaldehyde (PFA), washed with PBS, permeabilized with PBS–0.01% Triton X-100 for 15 min, and blocked with PBS–10% FBS for 1 hour before being stained overnight at 4°C with neurofilament antibody. Following PBS washes, secondary antibody (goat anti-chicken Alexa Fluor 488) was applied for 2 hours at room temperature (R.T.). Following additional PBS washes, coverslips were mounted with Fluoromount-G.
Images of random fields of dissociated adult DRG neurons, immunostained with antineurofilament or anti-TUBB3 antibodies, were captured using a 20× objective lens (Olympus IX81) and a Sensicam QE monochrome camera (Cooke Corporation). Degeneration masks were generated on the basis of the method described by Gerdts et al. ([66]). Axonal degeneration was quantified by measuring the total axonal area and fragmented axonal area in the same field, using degeneration masks as shown in fig. […] Images were processed in Fiji using global autothresholding, binarization, and the particle analyzer module to detect fragments (20 to 10,000 pixels), as previously described ([17]). The degeneration index was calculated as the ratio of fragmented axonal area to total axonal area.

[5] = system: carbonic anhydrase (CA); experiment: AS-MS binding assay, carbonic anhydrase (negative control); settings: 10 μM compound, 3 μM carbonic anhydrase
Method: To this end, Carba1 or FK866 (positive control of NAMPT binding) was first incubated with NAMPT or carbonic anhydrase (CA; negative control). Protein-ligand complexes were separated from the unbound compounds by size exclusion chromatography (SEC). To quantify the protein-bound fraction, the complexes were then dissociated using reverse-phase chromatography, and the compounds were analyzed and quantified by mass spectrometry. By comparing the amounts of compound before (preSEC) and after (postSEC) SEC in the presence of CA or NAMPT, we assessed their ability to selectively bind to NAMPT.
(§1) AS-MS was used to assess compound binding to NAMPT. AS-MS was performed by Edelris SAS (www.edelris.com/), which has developed the commercial AS-MS service “EDEN platform,” based on ([71]). Conditions consisted of protein (NAMPT and CA) at 3 μM and compounds (Carba1 and FK866) at 10 μM dissolved in corporate buffer.

[6] = system: rat embryonic DRG neurons; experiment: Primary rat sensory neuron/Schwann cell culture exposed to Cis (myelination); assay type: cell-based; settings: Cis 10 μg/ml; Carba1 tested at 1, 5, 10 μM
Method: These experiments, conducted by Neuro-Sys company (www.neuro-sys.com/) involved primary SNs and SCs cultured as previously described ([67]). On DIV 19, cultures were pretreated with Carba1 (1 to 10 μM) for 1 hour before exposure to Cis (10 μg/ml) for 24 hours in presence of Carba1. On DIV 20, the medium containing Cis was replaced with fresh medium and Carba1 for another 24 hours, ending the culture on DIV 21. Cells were fixed with ethanol/acetic acid (95%/5%) for 5 min, permeabilized, and blocked with PBS containing 0.1% saponin and 10% FBS. Cells were incubated with monoclonal anti-MBP (1:1000) and polyclonal anti-neurofilament (1:500) antibodies for 2 hours, followed by CF 488 A goat anti-mouse (1:400, Sigma-Aldrich) and Alexa Fluor 568 goat anti-rabbit (1:400, Molecular Probe) for 1 hour at R.T. Hoechst was used to stain nuclei.
Thirty images per well were acquired at ×20 magnification using ImageXpress (Molecular Devices) with identical acquisition settings, and analysis was automated with MetaXpress software. Key parameters measured included total neurite length (NF; in micrometers), total neurons (NF^+ cells), and myelination (MBP-NF overlap, in square micrometers).

[7] = biological target: NAMPT (Homo sapiens, UniProt P43490); experiment: AS-MS binding assay, NAMPT; settings: 10 μM compound, 3 μM NAMPT
Sequence of NAMPT (P43490 whole entry, species assumed): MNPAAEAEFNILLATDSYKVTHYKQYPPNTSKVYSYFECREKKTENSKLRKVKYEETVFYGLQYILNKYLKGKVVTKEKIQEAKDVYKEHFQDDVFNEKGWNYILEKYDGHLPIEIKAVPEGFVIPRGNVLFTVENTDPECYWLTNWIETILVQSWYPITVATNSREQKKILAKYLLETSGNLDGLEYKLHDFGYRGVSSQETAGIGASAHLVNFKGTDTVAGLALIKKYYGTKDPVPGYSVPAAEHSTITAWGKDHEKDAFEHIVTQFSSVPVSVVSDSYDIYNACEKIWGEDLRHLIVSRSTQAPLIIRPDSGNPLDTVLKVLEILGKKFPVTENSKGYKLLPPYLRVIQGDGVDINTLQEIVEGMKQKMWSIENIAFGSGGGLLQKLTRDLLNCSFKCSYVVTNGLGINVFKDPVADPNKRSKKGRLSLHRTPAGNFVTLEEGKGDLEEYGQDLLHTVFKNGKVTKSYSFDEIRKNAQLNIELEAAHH
Method: To this end, Carba1 or FK866 (positive control of NAMPT binding) was first incubated with NAMPT or carbonic anhydrase (CA; negative control). Protein-ligand complexes were separated from the unbound compounds by size exclusion chromatography (SEC). To quantify the protein-bound fraction, the complexes were then dissociated using reverse-phase chromatography, and the compounds were analyzed and quantified by mass spectrometry.
as §1

Q: For `Cc1cc(-n2cccc2)c(C)c2c1[nH]c1ccc(Cl)cc12` [Compound 1], which tumor size ([1]; i.v. every 2 days, Carba1 60 mg/kg alone or with PTX) is on record?
A: The tumor size was “no significant tumor size changes”.

Q: What about the “toxicity (blood counts, markers of renal or hepatic function)” value ([1]; i.v., Carba1 60 mg/kg, or combination) of the same molecule?
A: The value was “no detectable toxicity”.

Q: What about the GI50 [2] of the same molecule?
A: The GI50 was over 25 µM.

Q: And the “increase in NAD(P)H production” value [3]?
A: Its value is “about 30%”.

Q: What about the “protection against PTX-induced axonal degeneration” value ([4]; 12 μM Carba1 cotreatment with 50 nM PTX) of the same molecule?
A: Its value is “prevented neuronal degeneration”.

Q: What about the “protection against Bort-induced neuronal fragmentation” value ([4]; 12 μM Carba1 cotreatment with 100 nM Bort) of the same molecule?
A: The value was “prevent neuronal fragmentation”.

Q: What about the “protection against Cis-induced neuronal fragmentation” value ([4]; 12 μM Carba1 cotreatment with 10 μM Cis) of the same molecule?
A: The value was “prevent neuronal fragmentation”.

Q: And the “axonal fragmentation / degeneration, agent alone” value ([4]; DIV 12 neurons, Carba1 12 μM, PTX 50 nM, Cis 10 μM, Bort 100 nM)?
A: The value was “did not show significant effects on neurite fragmentation”.

Q: And the “binding to CA (AS-MS)” value [5]?
A: The value was “neither FK866 nor Carba1 was found to bind CA”.

Q: And the “concentration of maximal protective effect against Cis-induced demyelination” value [6]?
A: The value was 5 µM.

Q: What about the “binding to NAMPT (AS-MS)” value [7] of the same molecule?
A: Its value is “directly binds to NAMPT”.

Source: publication PMC12571071, “Preventing neuropathy and improving anticancer chemotherapy with a carbazole-based compound” (Science Advances, 2025)
